Key:
Experiment in all cases: relative viability (nuclei count vs DMSO), 5 days (fraction); higher = more cells survive
R406 + Luminespib = compound: COc1cc(Nc2ncc(F)c(Nc3ccc4c(n3)NC(=O)C(C)(C)O4)n2)cc(OC)c1OC [R406] + CCNC(=O)c1noc(-c2cc(C(C)C)c(O)cc2O)c1-c1ccc(CN2CCOCC2)cc1 [Luminespib] (partner 0.01 µM)
Method in brief: (§1)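 One day after seeding in 1536-well plates, lung cancer cell lines were dosed by pin tool. Dosing was either single-drug or a fixed anchor-drug dose plus five library-drug doses (not always all listed) in √10 steps. After 5 days, nuclei were stained in one fix-and-stain step and counted on 4× images, and relative viability is the nuclei count of treated wells over that of vehicle wells, given as the median of duplicate plates.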

R406 + Phenformin = compound: COc1cc(Nc2ncc(F)c(Nc3ccc4c(n3)NC(=O)C(C)(C)O4)n2)cc(OC)c1OC [R406] + N=C(N)NC(=N)NCCc1ccccc1 [Phenformin] (partner 250 µM)
Method in brief: as §1

Daporinad + Luminespib = compound: O=C(/C=C/c1cccnc1)NCCCCC1CCN(C(=O)c2ccccc2)CC1 [Daporinad] + CCNC(=O)c1noc(-c2cc(C(C)C)c(O)cc2O)c1-c1ccc(CN2CCOCC2)cc1 [Luminespib] (partner 0.01 µM)
Method in brief: as §1

Daporinad + Phenformin = compound: O=C(/C=C/c1cccnc1)NCCCCC1CCN(C(=O)c2ccccc2)CC1 [Daporinad] + N=C(N)NC(=N)NCCc1ccccc1 [Phenformin] (partner 250 µM)
Method in brief: as §1

Cell Line: UMC-11
- relative viability (R406 + Luminespib; first compound 0.08 µM): 1.09
- relative viability (R406 + Luminespib; first compound 0.253 µM): 1.07
- relative viability (R406 + Luminespib; first compound 0.8 µM): 1.12
- relative viability (R406 + Luminespib; first compound 2.53 µM): 0.835
- relative viability (R406 + Luminespib; first compound 8 µM): 0.418
- relative viability (R406 + Phenformin; first compound 0.08 µM): 0.356
- relative viability (R406 + Phenformin; first compound 0.253 µM): 0.35
- relative viability (R406 + Phenformin; first compound 0.8 µM): 0.368
- relative viability (R406 + Phenformin; first compound 2.53 µM): 0.28
- relative viability (R406 + Phenformin; first compound 8 µM): 0.19
- relative viability (Daporinad + Luminespib; first compound 0.0005 µM): 1.09
- relative viability (Daporinad + Luminespib; first compound 0.001581 µM): 1.04
- relative viability (Daporinad + Luminespib; first compound 0.005 µM): 1.26
- relative viability (Daporinad + Luminespib; first compound 0.01581 µM): 1.16
- relative viability (Daporinad + Phenformin; first compound 0.0005 µM): 0.266
- relative viability (Daporinad + Phenformin; first compound 0.001581 µM): 0.348
- relative viability (Daporinad + Phenformin; first compound 0.005 µM): 0.353
- relative viability (Daporinad + Phenformin; first compound 0.01581 µM): 0.367

— the supplement of paper PMC10307832
